Source: patent US10583111B2, “Method for preventing or treating diseases associated with the inhibition of EGFR” (priority 2017, dated 2020)

Key:
[1] = test system: intracellular NO level in hMSC; assay: Effect of the EGFR inhibitor on the intracellular NO levels, hMSC; format: cell-based; conditions: hMSCs; 20 μM; 12-24 hrs; cell lysate
Protocol: (§1) The cultured HaCaT, HUVEC and hMSC were respectively digested, counted, and seeded into 6-well plates with 100,000-600,000 cells per well. After the cells were attached, the supernatant was discarded, and 1.5 mL of the EGFR inhibitor solution diluted to the final concentration as shown in Table 7 was added into the wells of the 6-well plates, wherein no additional solution was added to the blank control group, except the normal replacement of basic medium. After 12-24 hrs of addition of the EGFR inhibitor, the supernatant was discarded, while 100 μL of a cell lysis solution was added to the cells in the 6-well plates (specifically for the detection of nitric oxide, 53090, Beyotime Inc.). After 30 s of lysis, 50 μL cell lysis solution was taken. The NO level in the cell lysis solution was detected by using NO assay kit (S0021, Beyotime Inc.). GraphPad Prism 6.0 Software and t-test were used to carry out a statistic analysis of the results and plot a graph.

[2] = test system: intracellular NO level in HaCaT; assay: Effect of the EGFR inhibitor on the intracellular NO levels, HaCaT; format: cell-based; conditions: 20 μM, 12-24 hrs, cell lysate
Protocol: as §1

[3] = test system: intracellular NO level in HUVEC; assay: Effect of the EGFR inhibitor on the intracellular NO levels, HUVEC; format: cell-based, human; conditions: 20 μM, 12-24 hrs, cell lysate
Protocol: as §1

skin cells HaCaT = assay: Proliferative toxicity of EGFR inhibitor on skin cells HaCaT and ameliorating effect of nitric oxide releasing agents (CCK-8); format: cell-based; conditions: 48 hrs
Protocol: The cultured skin cell HaCaT were digested, counted, and seeded in a 96-well plate with 5000-10000 cells per well. After the cells were attached, the supernatant was discarded. The wells were divided to the blank control group, the EGFR inhibitor group, the EGFR inhibitor+nitric oxide releasing agent group and the blank solvent control group. The EGFR inhibitor group: 100 μL of the EGFR inhibitor solution was added (the final concentration was shown in Table 2; Cetuximab was in an aqueous solution, besides which each of other EGFR inhibitors were in a solution containing DMSO); the EGFR inhibitor+nitric oxide releasing agent group: the EGFR inhibitor solution and the nitric oxide releasing agent solution were added (the final concentration of the EGFR inhibitor and nitric oxide releasing agent were shown in Table 2, and depending on the solubility of the nitric oxide releasing agent, the nitric oxide releasing agent solution was an ethanol solution or an aqueous solution); the blank control group: except the normal replacement of the medium, no additional solution was added; a plurality of blank solvent control groups: an equal volume of the same type of solvent as the corresponding EGFR inhibitor group or the EGFR inhibitor+nitric oxide releasing agent was added. […] After additional culture for 48 hrs, the survival rate of cells was measured by Cell Counting Kit-8 (CCK-8) assay kit (C0037, purchased from Shanghai Beyotime Biotechnology Inc.) to calculate the proliferative toxicity of the EGFR inhibitor to cells and the ameliorating effect of the nitric oxide releasing agent to the proliferative toxicity.

[4] = test system: human foreskin fibroblasts (HFF); assay: Proliferative toxicity of EGFR inhibitor on HFF and ameliorating effect of nitric oxide releasing agent (CCK-8); format: cell-based; conditions: one merged result for Erlotinib 10 μM, Afatinib 5 μM, Osimertinib 20 μM, agent 200 μM, 48 hrs
Protocol: The cultured human foreskin fibroblasts (HFF) were digested, counted, and seeded to a 96-well plate with 5000-10000 cells per well. After the cells were attached, the supernatant was discarded. The wells were divided to the blank control group, the EGFR inhibitor group, the EGFR inhibitor+nitric oxide releasing agent group and blank solvent control group. EGFR inhibitor group: 100 μL of the EGFR inhibitor solution was added (the final concentration was listed in Table 6, the EGFR inhibitor solutionare DMSO solution); the EGFR inhibitor+nitric oxide releasing agent group: the EGFR inhibitor solution and the nitric oxide releasing agent solution were added (the final concentrations of the EGFR inhibitor and the nitric oxide releasing agent were listed in Table 6, and depending on the solubility of the nitric oxide releasing agents, the nitric oxide releasing agent solution was ethanol solution or aqueous solution); the blank control group: except the normal replacement of medium, no additional solution was added; a plurality of blank solvent control group: an equal volume of the same type of solvent as the corresponding EGFR inhibitor group or the EGFR inhibitor+nitric oxide releasing agent group was added. […] After additional 48 hrs of culture, the survival rate of cells was determined by Cell Counting Kit-8 (CCK-8) assay kit (C0037, Shanghai Beyotime Biotechnology Inc., Beyotime Biotechnology), to calculate the proliferative toxicity of the EGFR inhibitor to cells and the ameliorating effect of the nitric oxide releasing agent to the proliferative toxicity. GraphPad Prism 6.0 Software and t-test were used to carry out a statistic analysis of the results and plot a graph.

[5] = test system: small intestine epithelial cells FHs 74 Int; assay: Proliferative toxicity of EGFR inhibitor to small intestine epithelial cell FHs 74 Int and ameliorating effect of nitric oxide releasing agent (CCK-8); format: cell-based; conditions: one merged result for Erlotinib 10 μM, Afatinib 5 μM, Osimertinib 20 μM, agent 200 μM, 48 hrs
Protocol: The cultured small intestine epithelial cells FHs 74 Int were digested, counted, and seeded to a 96-well plate with 5000-10000 cells per well. After the cells were attached, the supernatant was discarded. The wells were divided to the blank control group, the EGFR inhibitor group, the EGFR inhibitor+nitric oxide releasing agent group and blank solvent control group.
EGFR inhibitor group: 100 μL of the EGFR inhibitor solution was added (the final concentration was listed in Table 3, all the EGFR inhibitor solution are DMSO solution); the EGFR inhibitor+nitric oxide releasing agent group: the EGFR inhibitor solution and the nitric oxide releasing agent solution were added (the final concentrations of the EGFR inhibitor and the nitric oxide releasing agent were listed in Table 3, and depending on the solubility of the nitric oxide releasing agents, the nitric oxide releasing agent solution was ethanol solution or aqueous solution); the blank control group: except the normal replacement of medium, no additional solution was added; a plurality of blank solvent control group: an equal volume of the same type of solvent as the corresponding EGFR inhibitor group or the EGFR inhibitor+nitric oxide releasing agent group was added. […] After additional 48 hrs of culture, the survival rate of cells was determined by Cell Counting Kit-8 (CCK-8) assay kit (C0037, Shanghai Beyotime Biotechnology Inc., Beyotime Biotechnology), to calculate the proliferative toxicity of the EGFR inhibitor to cells and the ameliorating effect of the nitric oxide releasing agent to the proliferative toxicity. GraphPad Prism 6.0 Software and t-test were used to carry out a statistic analysis of the results and plot a graph.

[6] = test system: Human Oral Keratinocytes (HOK); assay: Proliferative toxicity of EGFR inhibitor on Human Oral Keratinocytes (HOK) and ameliorating effect of nitric oxide releasing agent (CCK-8); format: cell-based; conditions: one merged result for Erlotinib 10 μM, Afatinib 5 μM, Osimertinib 20 μM, agent 200 μM, 48 hrs
Protocol: The cultured Human Oral Keratinocytes (HOK) were digested, counted, and seeded to a 96-well plate with 5000-10000 cells per well. After the cells were attached, the supernatant was discarded. The wells were divided to the blank control group, the EGFR inhibitor group, the EGFR inhibitor+nitric oxide releasing agent group and blank solvent control group. EGFR inhibitor group: 100 μL of the EGFR inhibitor solution was added (the final concentration was listed in Table 4, all the EGFR inhibitor solution that are DMSO solution); the EGFR inhibitor+nitric oxide releasing agent group: the EGFR inhibitor solution and the nitric oxide releasing agent solution were added (the final concentrations of the EGFR inhibitor and the nitric oxide releasing agent were listed in Table 4, and depending on the solubility of the nitric oxide releasing agents, the nitric oxide releasing agent solution was ethanol solution or aqueous solution); the blank control group: except the normal replacement of medium, no additional solution was added; a plurality of blank solvent control group: an equal volume of the same type of solvent as the corresponding EGFR inhibitor group or the EGFR inhibitor+nitric oxide releasing agent group was added. […] After additional 48 hrs of culture, the survival rate of cells was determined by Cell Counting Kit-8 (CCK-8) assay kit (C0037, Shanghai Beyotime Biotechnology Inc., Beyotime Biotechnology), to calculate the proliferative toxicity of the EGFR inhibitor to cells and the ameliorating effect of the nitric oxide releasing agent to the proliferative toxicity. GraphPad Prism 6.0 Software and t-test were used to carry out a statistic analysis of the results and plot a graph.

[7] = test system: human umbilical vein endothelial cells (HUVEC); assay: Proliferative toxicity of EGFR inhibitor on HUVEC and ameliorating effect of nitric oxide releasing agent (CCK-8); format: cell-based; conditions: 48 hrs
Protocol: The cultured human umbilical vein endothelial cells (HUVECs) were digested, counted, and seeded to a 96-well plate with 5000-10000 cells per well. After the cells were attached, the supernatant was discarded. The wells were divided to the blank control group, the EGFR inhibitor group, the EGFR inhibitor+nitric oxide releasing agent group and blank solvent control group.
EGFR inhibitor group: 100 μL of the EGFR inhibitor solution was added (the final concentration was listed in Table 5, the EGFR inhibitor solution are DMSO solution); the EGFR inhibitor+nitric oxide releasing agent group: the EGFR inhibitor solution and the nitric oxide releasing agent solution were added (the final concentrations of the EGFR inhibitor and the nitric oxide releasing agent were listed in Table 5, and depending on the solubility of the nitric oxide releasing agents, the nitric oxide releasing agent solution was ethanol solution or aqueous solution); the blank control group: except the normal replacement of medium, no additional solution was added; a plurality of blank solvent control group: an equal volume of the same type of solvent solution as the corresponding EGFR inhibitor group or the EGFR inhibitor+nitric oxide releasing agent group was added. The blank solvent control group was used for data correction to eliminate the effect of solvent to the result in the EGFR inhibitor group and the EGFR inhibitor+nitric oxide releasing agent group. After additional 48 hrs of culture, the survival rate of cells was determined by Cell Counting Kit-8 (CCK-8) assay kit (C0037, Shanghai Beyotime Biotechnology Inc., Beyotime Biotechnology), to calculate the proliferative toxicity of the EGFR inhibitor to cells and the ameliorating effect of the nitric oxide releasing agent to the proliferative toxicity. GraphPad Prism 6.0 Software and t-test were used to carry out a statistic analysis of the results and plot a graph. […]

[8] = Afatinib 5 μM + nitric oxide releasing agent 200 μM
[9] = Cetuximab 100-200 μg/mL + nitric oxide releasing agent 200 μM
[10] = Erlotinib 10 μM + nitric oxide releasing agent 200 μM
[11] = Osimertinib 20 μM + nitric oxide releasing agent 200 μM

C#Cc1cccc(Nc2ncnc3cc(OCCOC)c(OCCOC)cc23)c1 [Erlotinib]
NO Level: percentage of NO concentration decreased vs control group [1]: 30% | NO Level: percentage of NO concentration decreased vs control group [2]: 28% | NO Level: percentage of NO concentration decreased vs control group [3]: 22%

CC(C)CCON=O [Isoamyl nitrite, isoamyl nitrite]
Cell Survival Rate: percentage of viable cells increased vs EGFR inhibitor group (skin cells HaCaT; [8]): by 35-45% | Cell Survival Rate: percentage of viable cells increased vs EGFR inhibitor group (skin cells HaCaT; [9]): by 35-45% | Cell Survival Rate: percentage of viable cells increased vs EGFR inhibitor group (skin cells HaCaT; [10]): by 75-85% | Cell Survival Rate: percentage of viable cells increased vs EGFR inhibitor group (skin cells HaCaT; [11]): by 35-45% | Cell Survival Rate: percentage of viable cells increased vs EGFR inhibitor group [4]: 30-80% | Cell Survival Rate: percentage of viable cells increased vs EGFR inhibitor group [5]: 25%-35% | Cell Survival Rate: percentage of viable cells increased vs EGFR inhibitor group [6]: 25-35%

CCOC(=O)[N-]c1cn(N2CCOCC2)n[o+]1 [Molsidomine]
Cell Survival Rate: percentage of viable cells increased vs EGFR inhibitor group (skin cells HaCaT; [8]): by 35-45% | Cell Survival Rate: percentage of viable cells increased vs EGFR inhibitor group (skin cells HaCaT; [10]): by 75-85% | Cell Survival Rate: percentage of viable cells increased vs EGFR inhibitor group (skin cells HaCaT; [11]): by 35-45% | Cell Survival Rate: percentage of viable cells increased vs EGFR inhibitor group [4]: 20-70% | Cell Survival Rate: percentage of viable cells increased vs EGFR inhibitor group [5]: 15%-35% | Cell Survival Rate: percentage of viable cells increased vs EGFR inhibitor group [6]: 20-30%

NCCN(CCN)[N+]([O-])=NO [NOC-18, 3,3-di (aminoethyl)-1-hydroxyl-2-carbonyl-1-triazene]
Cell Survival Rate: percentage of viable cells increased vs EGFR inhibitor group (skin cells HaCaT; [8]): by 35-45% | Cell Survival Rate: percentage of viable cells increased vs EGFR inhibitor group (skin cells HaCaT; [9]): by 45-55% | Cell Survival Rate: percentage of viable cells increased vs EGFR inhibitor group (skin cells HaCaT; [10]): by 75-85% | Cell Survival Rate: percentage of viable cells increased vs EGFR inhibitor group (skin cells HaCaT; [11]): by 25-35%

O=C(NCCO[N+](=O)[O-])c1cccnc1 [Nicorandil, nicorandil]
Cell Survival Rate: percentage of viable cells increased vs EGFR inhibitor group (skin cells HaCaT; [8]): by 65-75% | Cell Survival Rate: percentage of viable cells increased vs EGFR inhibitor group (skin cells HaCaT; [10]): by 85-95% | Cell Survival Rate: percentage of viable cells increased vs EGFR inhibitor group (skin cells HaCaT; [11]): by 30-40%

O=[N+]([O-])OCC(CO[N+](=O)[O-])O[N+](=O)[O-] [Nitroglycerin, nitroglycerin]
Cell Survival Rate: percentage of viable cells increased vs EGFR inhibitor group (skin cells HaCaT; [8]): by 85-95% | Cell Survival Rate: percentage of viable cells increased vs EGFR inhibitor group (skin cells HaCaT; Canertinib 10 μM + nitric oxide releasing agent 200 μM): by 55-65% | Cell Survival Rate: percentage of viable cells increased vs EGFR inhibitor group (skin cells HaCaT; [9]): by 35-45% | Cell Survival Rate: percentage of viable cells increased vs EGFR inhibitor group (skin cells HaCaT; EAI045 20 μM + nitric oxide releasing agent 200 μM): by 65-75% | Cell Survival Rate: percentage of viable cells increased vs EGFR inhibitor group (skin cells HaCaT; [10]): by 65-75% | Cell Survival Rate: percentage of viable cells increased vs EGFR inhibitor group (skin cells HaCaT; Gefitinib 10 μM + nitric oxide releasing agent 200 μM): by 65-75% | Cell Survival Rate: percentage of viable cells increased vs EGFR inhibitor group (skin cells HaCaT; Icotinib 10 μM + nitric oxide releasing agent 200 μM): by 65-75% | Cell Survival Rate: percentage of viable cells increased vs EGFR inhibitor group (skin cells HaCaT; Lapatinib 10 μM + nitric oxide releasing agent 200 μM): by 55-65% | Cell Survival Rate: percentage of viable cells increased vs EGFR inhibitor group (skin cells HaCaT; Nazartinib 10 μM + nitric oxide releasing agent 200 μM): by 55-65% | Cell Survival Rate: percentage of viable cells increased vs EGFR inhibitor group (skin cells HaCaT; Neratinib 10 μM + nitric oxide releasing agent 200 μM): by 65-75% | Cell Survival Rate: percentage of viable cells increased vs EGFR inhibitor group (skin cells HaCaT; Olmutinib 10 μM + nitric oxide releasing agent 200 μM): by 35-45% | Cell Survival Rate: percentage of viable cells increased vs EGFR inhibitor group (skin cells HaCaT; [11]): by 35-45% | Cell Survival Rate: percentage of viable cells increased vs EGFR inhibitor group (skin cells HaCaT; Poziotinib 10 μM + nitric oxide releasing agent 200 μM): by 55-65% | Cell Survival Rate: percentage of viable cells increased vs EGFR inhibitor group (skin cells HaCaT; Rociletinib 10 μM + nitric oxide releasing agent 200 μM): by 65-75% | Cell Survival Rate: percentage of viable cells increased vs EGFR inhibitor group (skin cells HaCaT; Sapitinib 10 μM + nitric oxide releasing agent 200 μM): by 55-65% | Cell Survival Rate: percentage of viable cells increased vs EGFR inhibitor group (skin cells HaCaT; Vandetanib 10 μM + nitric oxide releasing agent 200 μM): by 55-65% | Cell Survival Rate: percentage of viable cells increased vs EGFR inhibitor group (skin cells HaCaT; Varlitinib 10 μM + nitric oxide releasing agent 200 μM): by 35-45% | Cell Survival Rate: percentage of viable cells increased vs EGFR inhibitor group [4]: 30-90% | Cell Survival Rate: percentage of viable cells increased vs EGFR inhibitor group ([7]; Afatinib 5 μM + agent 200 μM): 15-20% | Cell Survival Rate: percentage of viable cells increased vs EGFR inhibitor group ([7]; Erlotinib 10 μM + agent 200 μM): 20-30% | Cell Survival Rate: percentage of viable cells increased vs EGFR inhibitor group ([7]; Osimertinib 20 μM + agent 200 μM): 90-100% | Cell Survival Rate: percentage of viable cells increased vs EGFR inhibitor group [5]: 15%-35% | Cell Survival Rate: percentage of viable cells increased vs EGFR inhibitor group [6]: 20-30%
